These results are taken from patent publication US7951951B2, “Bicyclic enamino(thio)carbonyl compounds” (Bayer Cropscience AG, priority 2006, dated 2011).

Holding throughout (type): in vivo
Experiment [1] deals with green peach aphid (Myzus persicae). The experiment can be described thus: Myzus persicae test, hydroponic treatment (MYZUPE sys.). Particulars: 20 ppm, hydroponic treatment of pea plant. The method, then: Myzus persicae Test, Hydroponic Treatment (MYZUPE sys.)
(§1) Solvent: 7 parts by weight of dimethylformamide
(§2) Emulsifier: 2 parts by weight of alkylaryl polyglycol ether
(§3) To produce a suitable preparation of active compound, 1 part by weight of active compound is mixed with the stated amounts of solvent and emulsifier, and the concentrate is diluted with emulsifier-containing water to the desired concentration.
The preparation of active compound is mixed with water. The stated concentration refers to the amount of active compound per volume unit of […] (mg/l=ppm). The treated water is filled into containers housing a pea plant (Pisum sativum) which is then infected with the green peach aphid (Myzus persicae).
(§4) After the desired period of time, the kill in % is determined. 100% means that all aphids have been killed; 0% means that none of the aphids have been killed.
(§5) In this test, for example, the following compounds of the Preparation Examples show good activity: see table.

For experiment [2], the system named is cotton aphid (Aphis gossypii). The experiment is described as follows: Aphis gossypii test (APHIGO), spraying. Particulars: 12 g/ha, cotton leaves sprayed. The method, then: (§6) Aphis gossypii Test (APHIGO)
as §1
Emulsifier: 1 part by weight of alkylaryl polyglycol ether
as §3
Cotton leaves (Gossypium hirsutum) which are heavily infested by the cotton aphid (Aphis gossypii) are treated by spraying with the preparation of active compound at the stated concentration.
After the desired period of time, the kill in % is determined. 100% means that all animals have been killed; 0% means that none of the animals have been killed.
(§7) In this test, for example, the following compounds of the Preparation Examples show good activity: see table

The subject of experiment [3] is caterpillars of the armyworm (Spodoptera frugiperda). The experiment can be described thus: Spodoptera frugiperda test (SPODFR spray treatment). The settings on record: 500 g/ha, sprayed maize leaf discs. The procedure: Spodoptera frugiperda Test (SPODFR Spray Treatment)
(§8) Solvents: 78 parts by weight of acetone • • 1.5 parts by weight of dimethylformamide
(§9) Emulsifier: 0.5 part by weight of alkylaryl polyglycol ether
(§10) To produce a suitable preparation of active compound, 1 part by weight of active compound is mixed with the stated amounts of solvents and emulsifier, and the concentrate is diluted with emulsifier-containing water to the desired concentration.
Discs of maize leaves (Zea mays) are sprayed with a preparation of active compound of the desired concentration and, after drying, populated with caterpillars of the armyworm (Spodoptera frugiperda).
After the desired period of time, the effect in % is determined. 100% means that all caterpillars have been killed; 0% means that none of the caterpillars have been killed.
as §7

Experiment [4] relates to cotton aphid (Aphis gossypii). The experiment is described as follows: Aphis gossypii test (APHIGO), leaf dipping. Particulars: cotton leaves dipped. The procedure:
as §6
Solvent: 7 parts by weight of dimethylformrnamide
as §2, §3
Cotton leaves (Gossypium hirsutum) which are heavily infested by the cotton aphid (Aphis gossypii) are treated by being dipped into the preparation of active compound of the desired concentration.
as §4, §5

Experiment [5] relates to green peach aphid (Myzus persicae). The experiment can be described thus: Myzus test (MYZUPE spray treatment). Particulars: spray on infested Chinese cabbage discs; for pest or weed control at 500 g/ha: Myzus persicae, in Brassica rapa, 120 h, after 5 days, read-out: Kill rate in % after 5 days; for Kill rate in % after 5 days: 500 g/ha. The procedure:
Myzus Test (MYZUPE Spray Treatment)
as §8, §9, §10
Discs of Chinese cabbage (Brassica pekinensis) which are infested by all stages of the green peach aphid (Myzus persicae) are sprayed with a preparation of active compound of the desired concentration.
(§11) After the desired period of time, the effect in % is determined. 100% means that all aphids have been killed; 0% means that none of the aphids have been killed.
On this test, for example, the following compounds of the Preparation Examples show good activity: see table

In experiment [6] the test system is Lucilia cuprina larvae. The experiment can be described thus: Lucilia cuprina test (LUCICU). The settings on record: 100 ppm, treated horse meat. The procedure: Lucilia cuprina Test (LUCICU)
Solvent: dimethyl sulphoxide
To produce a suitable preparation of active compound, 1 part by weight of active compound is mixed with the stated amount of water and the concentrate is diluted with water to the desired concentration.
Containers containing horse meat treated with the preparation of active compound of the desired concentration are populated with Lucilia cuprina larvae.
After the desired period of time, the kill in % is determined. 100% means that all larvae have been killed; 0% means that none of the larvae have been killed.
as §5

Experiment [7] concerns green peach aphid (Myzus persicae). The experiment can be described thus: Myzus test; oral (MYZUPE O). Particulars: 100 ppm, oral (sucking at the preparation). The procedure: Myzus Test; Oral; (MYZUPE O)
Solvent: 80 parts by weight of acetone
To produce a suitable preparation of active compound, 1 part by weight of active compound is mixed with the stated amounts of solvent and emulsifier, and the concentrate is diluted with water to the desired concentration.
Containers are populated with all stages of the green peach aphid (Myzus persicae), the treatment is by sucking at the preparation of active compound of the desired concentration.
as §11, §7

The test system of experiment [8] is larvae of the mustard beetle (Phaedon cochleariae). The experiment can be described thus: Phaedon cochleariae test (PHAECO spray treatment). Particulars: 500 g/ha, sprayed Chinese cabbage discs. The method, then:
Phaedon cochleariae Test (PHAECO Spray Treatment)
as §8, §9, §10
After the desired period of time, the effect in % is determined. 100% means that all beetle larvae have been killed; 0% means that none of the beetle larvae have been killed.
as §7

Experiment [9] relates to greenhouse red spider mite (Tetranychus urticae). The experiment is described as follows: Tetranychus test, OP-resistant (TETRUR spray treatment). The settings on record: 500 g/ha, sprayed bean leaf discs. The method, then:
Tetranychus Test, OP-Resistant (TETRUR Spray Treatment)
as §8, §9, §10
Discs of bean leaves (Phaseolus vulgaris) which are infested by all stages of the greenhouse red spider mite (Tetranychus urticae) are sprayed with a preparation of active compound of the desired concentration.
After the desired period of time, the effect in % is determined. 100% means that all spider mites have been killed; 0% means that none of the spider mites have been killed.
as §5

For the compound `O=C1C=C2C(CCCN2Cc2ccc(Cl)nc2)O1` (stereo not shown) [Example I-2, 4-[(6-Chloropyridin-3-yl)methyl]-5,6,7,7a-tetrahydrofuro[3,2-b]pyridin-2(4H)-one], the “Kill rate in % after 6 days” value in experiment [1] is recorded as 100%; in [4] (20 ppm) it was 95%. For the same compound, the entries for the “Kill rate in % after 7 days” value in experiment [2] and in experiment [3] were 85% and 100%, respectively. In experiment [5], the pest or weed control at 500 g/ha is 100%. Besides, the “Kill rate in % after 2 days” value in [6] is listed as 100%.

Regarding `O=C1C=C2C(O1)C(O)CCN2Cc1ccc(Cl)nc1` (stereo not shown) [Example I-19], the pest or weed control at 500 g/ha in experiment [5] was determined as 100%.

Consider `O=C1C=C2C(OCCN2Cc2ccc(Cl)nc2)O1` (stereo not shown) [Example I-1, 1-[(6-Chloropyridin-3-yl)methyl]-2,3-dihydro-1H-furo[2,3-b][1,4]oxazin-6(4aH)-one], for which the “Kill rate in % after 5 days” value in [7] amounted to 100%. For the same compound, the pest or weed control at 500 g/ha in experiment [5] amounted to 100%.

As to `CC1CC2OC(=O)C=C2N(Cc2ccc(Cl)nc2)C1` (single isomer, unassigned) [Example I-12a, 4-[(6-Chloropyridin-3-yl)methyl]-6-methyl-5,6,7,7a-tetrahydrofuro[3,2-b]-pyridin-2(4H)-on], the “Kill rate in % after 5 days” value in experiment [7] is given as 100%. Further, the pest or weed control at 500 g/ha in experiment [5] is 100%.

As for `O=C1C=C2C(=CCCN2Cc2ccc(Cl)nc2)O1` [Example I-20, 4-[(6-Chloropyridin-3-yl)methyl]-5,6-dihydrofuro[3,2-b]pyridin-2(4H)-one], the “Kill rate in % after 7 days” value in experiment [8] is 100%. In experiment [5], the pest or weed control at 500 g/ha was found to be 100%.

Consider `O=C1CC2OC(=O)C=C2N(Cc2ccc(Cl)nc2)C1` (stereo not shown) [Example I-14], for which the “Kill rate in % after 5 days” value in [7] was determined as 100%. In addition, in experiment [5], the pest or weed control at 500 g/ha is 100%.

In the case of `O=C1OC2CCCN(Cc3ccc(Cl)nc3)C2=C1Cl` (stereo not shown) [Example I-9], the results for the “Kill rate in % after 6 days” value in experiment [1] and in experiment [4] (100 ppm) were 100% and 90%, respectively. For the same compound, in [5], the pest or weed control at 500 g/ha was determined as 100%. The “Kill rate in % after 2 days” value in experiment [6] stood at 80%.

Take `O=C1C=C2C(CCCCN2Cc2ccc(Cl)nc2)O1` (stereo not shown) [Example I-7, 4-[(6-Chloropyridin-3-yl)methyl]-4,5,6,7,8,8a-hexahydro-2H-furo[3,2-b]-azepin-2-one]: the “Kill rate in % after 6 days” value in [1] worked out at 100%; in experiment [4] (100 ppm), 95%. In experiment [5], the pest or weed control at 500 g/ha is 100%.

In the case of `O=C1C=C2[C@@H](CCCN2Cc2ccc(Cl)nc2)O1` [Example I-3], the “Kill rate in % after 7 days” value in experiment [3] and in experiment [8] was 100% throughout. The pest or weed control at 500 g/ha in experiment [5] was found to be 100%.

As for `O=C1C=C2C(CC(Cl)CN2Cc2ccc(Cl)nc2)O1` (single isomer, unassigned) [Example I-17b, 4-[(6-Chloropyridin-3-yl)methyl]-6-chloro-5,6,7,7a-tetrahydrofuro[3,2-b]-pyridin-2(4H)-one], in experiment [5], the “Kill rate in % after 5 days” value is reported as 90%.

As for `O=C1OC2COCN(Cc3ccc(Cl)nc3)C2=C1Cl` (stereo not shown) [Example I-8], the pest or weed control at 500 g/ha in experiment [5] worked out at 100%.

As to `O=C1C=C2C(CC(F)(F)CN2Cc2ccc(Cl)nc2)O1` (stereo not shown) [Example I-15], the pest or weed control at 500 g/ha in [5] was determined as 100%.

Consider `O=CC1=C2C(CCCN2Cc2ccc(Cl)nc2)OC1=O` (stereo not shown) [Example I-11, 3-Formyl-4-[(6-chloropyridin-3-yl)methyl]-5,6,7,7a-tetrahydrofuro [3,2-b]-pyridin-2(4H)-one], for which, in [5], the pest or weed control at 500 g/ha stood at 100%.

As for `CC1CC2OC(=O)C=C2N(Cc2ccc(Cl)nc2)C1` (single isomer, unassigned) [Example I-12b, 4-[(6-Chloropyridin-3-yl)methyl]-6-methyl-5,6,7,7a-tetrahydrofuro[3,2-b]-pyridin-2(4H)-on], the “Kill rate in % after 5 days” value in experiment [7] and in experiment [5] was 100% each time. The “Kill rate in % after 6 days” value in [9] amounted to 90%.

As to `O=C1C=C2C(CC=CCN2Cc2ccc(Cl)nc2)O1` (stereo not shown) [Example I-6, 4-[(6-Chloropyridin-3-yl)methyl]-4,5,8,8a-tetrahydro-2H-furo[3,2-b]azepin-2-one], the pest or weed control at 500 g/ha in experiment [5] turned out to be 100%. Further, the “Kill rate in % after 2 days” value in [6] stood at 100%.

Take `O=C1C=C2C(CC(Cl)CN2Cc2ccc(Cl)nc2)O1` (single isomer, unassigned) [Example I-17a, 4-[(6-Chloropyridin-3-yl)methyl]-6-chloro-5,6,7,7a-tetrahydrofuro[3,2-b]-pyridin-2(4H)-one]: in [8], the “Kill rate in % after 7 days” value is 100%. Further, the pest or weed control at 500 g/ha in experiment [5] amounted to 100%.

With `O=C1C=C2C(CC=CN2Cc2ccc(Cl)nc2)O1` (stereo not shown) [Example I-18, 4-[(6-Chloropyridin-3-yl)methyl]-7,7a-dihydrofuro[3,2-b]pyridin-2(4H)-one], the pest or weed control at 500 g/ha in experiment [5] came out at 100%.

Take `O=C1C=C2[C@H](CCCN2Cc2ccc(Cl)nc2)O1` [Example I-4]: in experiment [8], the “Kill rate in % after 7 days” value is reported as 100%. Moreover, in experiment [5], the pest or weed control at 500 g/ha worked out at 100%.

Consider `CC12CCCN(Cc3ccc(Cl)nc3)C1=CC(=O)O2` (stereo not shown) [Example I-10, 4-[(6-Chloropyridin-3-yl]methyl]-7a-methyl-5,6,7,7a-tetrahydrofuro[3,2-b]-pyridin-2(4H)-one], for which the pest or weed control at 500 g/ha in experiment [5] came to 100%.
